Legend:
[1] = target: T1, HiBit-BRM fusion protein (Homo sapiens, UniProt P51531); experiment: HiBiT-BRM cell-based degradation assay (Nano-Glo HiBiT Lytic Detection, 24 h); conditions: HeLa cells expressing HiBiT-BRM; for DC50: read-out: BRM HiBit Degradation IC50; for BRM HiBit Degradation Maximum measured: top dose 30 μM
T1 construct: expressed in transfected cells
Method: (§1) Procedure: A stable HeLa cell line expressing HiBiT-BRM was generated. On day 0, 5000 cells were seeded in 40 μL of media into each well of 384-well cell culture plates. On day 1, cells were treated with 120 nL DMSO or 120 nL of 3-fold serially DMSO-diluted compounds (10 points in duplicate with 30 μM as final top dose). Subsequently plates were incubated for 24 h in a standard tissue culture incubator and equilibrated at room temperature for 15 minutes. Nano-Glo HiBiT Lytic Detection System (Promega N3050) reagent was freshly prepared and 20 ul was added to each well. Upon addition of this LgBit-containing reagent, the HiBiT and LgBiT proteins associate to form the luminescent NanoBiT luciferase. The plates were shaken for 10 minutes at room temperature and the bioluminescence read using an EnVision plate reader (PerkinElmer).
(§2) The degradation % was calculated using the following formula: % degradation=100%−100%×(LumSample−LumLC)/(LumHC−LumLC). DMSO treated cells are employed as High Control (HC) and 2 μM of a known BRM/BRG1 degrader standard treated cells are employed as Low Control (LC).

[2] = target: T2, HiBit-BRG1 fusion protein (Homo sapiens, UniProt P51532); experiment: HiBiT-BRG1 cell-based degradation assay (Nano-Glo HiBiT Lytic Detection, 24 h); conditions: HeLa cells expressing HiBit-BRG1 and LgBit; for DC50: read-out: BRG1 HiBit Degradation IC50; for Dmax: HeLa, top dose 30 μM, read-out: BRG1 HiBit Degradation Maximum measured
T2 construct: expressed in transfected cells
Method: as §1, with “On day 1, cells were treated with 120 nL DMSO or 120 nL of 3-fold serially DMSO-diluted compounds (10 points in duplicate with 30 μM as final top dose). Subsequently plates were incubated for 24 h in a standard tissue culture incubator and equilibrated at room temperature for 15 minutes.” left out
For measurement of BRG1 degradation, a stable HeLa cell line expressing HiBit-BRG1 and LgBit was generated. The same protocol as above was then followed.
as §2

T1 sequence (P51531 whole entry, the tested form may be a part): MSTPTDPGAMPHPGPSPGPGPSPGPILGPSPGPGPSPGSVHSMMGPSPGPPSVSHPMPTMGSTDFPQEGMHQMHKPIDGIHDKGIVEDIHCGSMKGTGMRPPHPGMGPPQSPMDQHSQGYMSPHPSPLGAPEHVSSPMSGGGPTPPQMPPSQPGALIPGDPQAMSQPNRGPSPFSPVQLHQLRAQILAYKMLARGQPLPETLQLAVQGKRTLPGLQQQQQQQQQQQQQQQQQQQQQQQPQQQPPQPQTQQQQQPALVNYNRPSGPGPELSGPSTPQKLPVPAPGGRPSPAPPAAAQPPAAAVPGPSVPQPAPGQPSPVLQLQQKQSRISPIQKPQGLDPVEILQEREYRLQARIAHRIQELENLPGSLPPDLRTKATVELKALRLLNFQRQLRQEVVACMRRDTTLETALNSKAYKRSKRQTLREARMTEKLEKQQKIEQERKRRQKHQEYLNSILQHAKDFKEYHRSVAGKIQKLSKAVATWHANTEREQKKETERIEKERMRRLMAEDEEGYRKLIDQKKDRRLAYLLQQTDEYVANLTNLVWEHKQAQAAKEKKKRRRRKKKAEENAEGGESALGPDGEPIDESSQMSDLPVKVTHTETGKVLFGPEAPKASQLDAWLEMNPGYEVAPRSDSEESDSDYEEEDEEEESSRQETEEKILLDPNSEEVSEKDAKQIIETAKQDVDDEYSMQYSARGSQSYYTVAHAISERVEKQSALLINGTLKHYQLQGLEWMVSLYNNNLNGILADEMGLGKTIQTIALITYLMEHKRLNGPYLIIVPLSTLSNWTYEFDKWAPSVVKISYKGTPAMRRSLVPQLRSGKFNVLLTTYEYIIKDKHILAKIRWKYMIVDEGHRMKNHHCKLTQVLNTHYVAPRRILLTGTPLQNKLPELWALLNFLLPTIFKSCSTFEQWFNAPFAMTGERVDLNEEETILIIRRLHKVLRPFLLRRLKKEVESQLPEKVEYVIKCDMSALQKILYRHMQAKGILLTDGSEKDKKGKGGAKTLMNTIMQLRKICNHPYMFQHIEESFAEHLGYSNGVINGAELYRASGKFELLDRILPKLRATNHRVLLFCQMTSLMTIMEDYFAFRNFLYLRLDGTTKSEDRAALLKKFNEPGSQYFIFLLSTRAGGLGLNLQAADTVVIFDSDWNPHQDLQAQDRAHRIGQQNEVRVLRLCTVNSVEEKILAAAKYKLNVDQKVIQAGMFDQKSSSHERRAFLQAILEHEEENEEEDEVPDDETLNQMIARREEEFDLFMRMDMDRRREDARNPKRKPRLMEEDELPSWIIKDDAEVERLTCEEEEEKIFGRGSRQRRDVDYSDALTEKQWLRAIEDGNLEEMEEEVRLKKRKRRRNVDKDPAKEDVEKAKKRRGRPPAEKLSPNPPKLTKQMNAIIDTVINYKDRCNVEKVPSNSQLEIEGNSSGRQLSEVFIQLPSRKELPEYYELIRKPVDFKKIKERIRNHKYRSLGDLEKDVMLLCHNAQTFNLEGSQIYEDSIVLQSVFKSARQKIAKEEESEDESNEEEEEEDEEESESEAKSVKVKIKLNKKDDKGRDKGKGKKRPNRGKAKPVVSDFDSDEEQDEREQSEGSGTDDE
T2 sequence (P51532 whole entry, the tested form may be a part): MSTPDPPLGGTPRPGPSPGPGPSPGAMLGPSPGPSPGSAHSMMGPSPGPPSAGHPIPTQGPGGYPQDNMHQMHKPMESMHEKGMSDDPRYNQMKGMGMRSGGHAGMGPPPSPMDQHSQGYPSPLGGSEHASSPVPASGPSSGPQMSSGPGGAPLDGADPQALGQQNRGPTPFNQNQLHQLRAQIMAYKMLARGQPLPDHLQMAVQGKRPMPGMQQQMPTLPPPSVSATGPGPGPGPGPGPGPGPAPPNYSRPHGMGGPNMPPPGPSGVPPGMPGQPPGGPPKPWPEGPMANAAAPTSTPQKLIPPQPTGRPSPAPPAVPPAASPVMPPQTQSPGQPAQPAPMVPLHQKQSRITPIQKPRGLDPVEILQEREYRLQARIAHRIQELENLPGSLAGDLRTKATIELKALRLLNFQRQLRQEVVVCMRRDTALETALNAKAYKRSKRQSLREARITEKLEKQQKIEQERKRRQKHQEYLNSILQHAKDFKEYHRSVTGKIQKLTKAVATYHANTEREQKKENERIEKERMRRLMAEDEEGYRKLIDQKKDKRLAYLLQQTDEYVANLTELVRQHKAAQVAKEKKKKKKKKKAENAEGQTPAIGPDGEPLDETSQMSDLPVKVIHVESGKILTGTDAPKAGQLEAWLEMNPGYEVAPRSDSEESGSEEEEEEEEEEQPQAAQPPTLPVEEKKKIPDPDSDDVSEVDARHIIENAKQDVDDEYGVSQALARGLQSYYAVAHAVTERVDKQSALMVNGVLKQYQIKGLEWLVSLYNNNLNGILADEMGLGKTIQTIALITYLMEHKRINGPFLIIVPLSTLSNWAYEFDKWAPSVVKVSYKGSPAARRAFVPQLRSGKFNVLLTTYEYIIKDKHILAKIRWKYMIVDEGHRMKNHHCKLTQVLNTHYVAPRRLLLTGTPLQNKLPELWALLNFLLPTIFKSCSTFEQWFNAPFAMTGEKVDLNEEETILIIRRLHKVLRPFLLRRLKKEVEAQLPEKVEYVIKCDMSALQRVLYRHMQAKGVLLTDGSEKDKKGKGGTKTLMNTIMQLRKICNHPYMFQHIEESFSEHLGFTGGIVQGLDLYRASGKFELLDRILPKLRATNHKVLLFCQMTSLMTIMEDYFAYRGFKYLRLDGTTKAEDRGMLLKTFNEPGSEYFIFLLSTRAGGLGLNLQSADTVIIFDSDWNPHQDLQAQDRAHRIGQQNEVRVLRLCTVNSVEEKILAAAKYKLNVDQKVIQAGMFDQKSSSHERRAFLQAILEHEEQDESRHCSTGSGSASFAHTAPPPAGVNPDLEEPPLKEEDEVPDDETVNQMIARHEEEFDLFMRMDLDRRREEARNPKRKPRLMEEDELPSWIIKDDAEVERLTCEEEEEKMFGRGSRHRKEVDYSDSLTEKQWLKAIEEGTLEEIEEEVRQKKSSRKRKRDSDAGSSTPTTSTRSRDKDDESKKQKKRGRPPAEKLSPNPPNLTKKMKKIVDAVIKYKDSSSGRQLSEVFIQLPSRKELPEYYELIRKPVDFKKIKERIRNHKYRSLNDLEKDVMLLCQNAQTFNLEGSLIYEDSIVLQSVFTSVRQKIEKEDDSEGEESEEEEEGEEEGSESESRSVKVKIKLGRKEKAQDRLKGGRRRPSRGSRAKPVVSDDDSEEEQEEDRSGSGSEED

SMILES	DC50 [1] [µM]	BRM HiBit Degradation Maximum measured [1]	DC50 [2] [µM]	Dmax [2] [%]
Cc1ncsc1-c1ccc(CNC(=O)[C@@H]2C[C@@H](O)CN2C(=O)[C@@H](NC(=O)CCOCCOCCC(=O)NCc2cccc(-c3cccc(-c4csc(NC(=O)CNC(=O)c5ccn(S(C)(=O)=O)c5)n4)c3)c2)C(C)(C)C)cc1 [Compound 1, N-(2-((4-(3′-((S)-14-((2S,4R)-4-hydroxy-2-((4-(4-methylthiazol-5-yl)benzyl)carbamoyl)pyrrolidine-1-carbonyl)-15,15-dimethyl-3,12-dioxo-6,9-dioxa-2,13-diazahexadecyl)-[1,1′-biphenyl]-3-yl)thiazol-2-yl)amino)-2-oxoethyl)-1-(methylsulfonyl)-1H-pyrrole-3-carboxamide]	0.1 to 1	A (‘A’ = Maximum degradation >75%)	0.1 to 1	> 75
CS(=O)(=O)n1ccc(C(=O)NCC(=O)Nc2nc(-c3cccc(-c4ccn(CC(=O)NCCCCCNc5cccc6c5C(=O)N(C5CCC(=O)NC5=O)C6=O)n4)c3)cs2)c1 (stereo not shown) [Compound 2, N-[2-[[4-[3-[1-[2-[5-[[2-(2,6-dioxo-3-piperidyl)-1,3-dioxoisoindolin-4-yl]amino]pentylamino]-2-oxo-ethyl]pyrazol-3-yl]phenyl]thiazol-2-yl]amino]-2-oxo-ethyl]-1-methylsulfonylpyrrole-3-carboxamide]	> 10	C (‘C’ = Maximum degradation <50%)	> 10	< 50
CS(=O)(=O)n1ccc(C(=O)NCC(=O)Nc2nc(-c3cccc(-c4ccn(CC(=O)NCCOCCOCCNc5cccc6c5C(=O)N(C5CCC(=O)NC5=O)C6=O)n4)c3)cs2)c1 (stereo not shown) [Compound 3, N-[2-[[4-[3-[1-[2-[2-[2-[2-[[2-(2,6-dioxo-3-piperidyl)-1,3-dioxoisoindolin-4-yl]amino]ethoxy]ethoxy]ethylamino]-2-oxo-ethyl]pyrazol-3-yl]phenyl]thiazol-2-yl]amino]-2-oxo-ethyl]-1-methylsulfonyl-pyrrole-3-carboxamide]	> 10	C (‘C’ = Maximum degradation <50%)	> 10	< 50
CS(=O)(=O)n1ccc(C(=O)NCC(=O)Nc2nc(-c3cccc(-c4ccn(CC(=O)N5CCC(C6CCN(C(=O)COc7cccc8c7C(=O)N(C7CCC(=O)NC7=O)C8=O)CC6)CC5)n4)c3)cs2)c1 (stereo not shown) [Compound 4, N-[2-[[4-[3-[1-[2-[4-[1-[2-[2-(2,6-dioxo-3-piperidyl)-1,3-dioxoisoindolin-4-yl]oxyacetyl]-4-piperidyl]-1-piperidyl]-2-oxo-ethyl]pyrazol-3-yl]phenyl]thiazol-2-yl]amino]-2-oxo-ethyl]-1-methylsulfonyl-pyrrole-3-carboxamide]	> 10	C (‘C’ = Maximum degradation <50%)	> 10	< 50
CS(=O)(=O)n1ccc(C(=O)NCC(=O)Nc2nc(-c3cccc(-c4ccn(CC(=O)NCCCCCCCCNC(=O)COc5cccc6c5C(=O)N(C5CCC(=O)NC5=O)C6=O)n4)c3)cs2)c1 (stereo not shown) [Compound 5, N-[2-[[4-[3-[1-[2-[8-[[2-[2-(2,6-dioxo-3-piperidyl)-1,3-dioxoisoindolin-4-yl]oxyacetyl]amino]octylamino]-2-oxo-ethyl]pyrazol-3-yl]phenyl]thiazol-2-yl]amino]-2-oxo-ethyl]-1-methylsulfonyl-pyrrole-3-carboxamide]	> 10	C (‘C’ = Maximum degradation <50%)	> 10	< 50
CC(C)(C(=O)NCCOCCOCCNc1cccc2c1C(=O)N(C1CCC(=O)NC1=O)C2=O)n1ccc(-c2cccc(-c3csc(NC(=O)CNC(=O)c4ccn(S(C)(=O)=O)c4)n3)c2)n1 (stereo not shown) [Compound 6, N-(2-((4-(3-(1-(1-((2-(2-(2-((2-(2,6-dioxopiperidin-3-yl)-1,3-dioxoisoindolin-4-yl)amino)ethoxy)ethoxy)ethyl)amino)-2-methyl-1-oxopropan-2-yl)-1H-pyrazol-3-yl)phenyl)thiazol-2-yl)amino)-2-oxoethyl)-1-(methylsulfonyl)-1H-pyrrole-3-carboxamide]	> 10	C (‘C’ = Maximum degradation <50%)	> 10	< 50
CC(C)(C(=O)NCCCCCNc1cccc2c1C(=O)N(C1CCC(=O)NC1=O)C2=O)n1ccc(-c2cccc(-c3csc(NC(=O)CNC(=O)c4ccn(S(C)(=O)=O)c4)n3)c2)n1 (stereo not shown) [Compound 7, N-[2-[[4-[3-[1-[2-[5-[[2-(2,6-dioxo-3-piperidyl)-1,3-dioxo-isoindolin-4-yl]amino]pentylamino]-1,1-dimethyl-2-oxo-ethyl]pyrazol-3-yl]phenyl]thiazol-2-yl]amino]-2-oxo-ethyl]-1-methylsulfonyl-pyrrole-3-carboxamide]	> 10	C (‘C’ = Maximum degradation <50%)	> 10	< 50
CC(C)(C(=O)NCCCCCCCCNC(=O)COc1cccc2c1C(=O)N(C1CCC(=O)NC1=O)C2=O)n1ccc(-c2cccc(-c3csc(NC(=O)CNC(=O)c4ccn(S(C)(=O)=O)c4)n3)c2)n1 (stereo not shown) [Compound 8, N-(2-((4-(3-(1-(1-((8-(2-((2-(2,6-dioxopiperidin-3-yl)-1,3-dioxoisoindolin-4-yl)oxy)acetamido)octyl)amino)-2-methyl-1-oxopropan-2-yl)-1H-pyrazol-3-yl)phenyl)thiazol-2-yl)amino)-2-oxoethyl)-1-(methylsulfonyl)-1H-pyrrole-3-carboxamide]	0.1 to 1	B (‘B’ = Maximum degradation ≥50% and ≤75%)	0.1 to 1	50 to 75

Now from value to compound:

DC50 [1] [µM]	BRM HiBit Degradation Maximum measured [1]	DC50 [2] [µM]	Dmax [2] [%]	SMILES
> 10	C (‘C’ = Maximum degradation <50%)	> 10	< 50	CN(CC(=O)NCCOCCOCCNc1cccc2c1C(=O)N(C1CCC(=O)NC1=O)C2=O)c1cc(-c2cccc(-c3csc(NC(=O)CNC(=O)c4ccn(S(C)(=O)=O)c4)n3)c2)ccn1 (stereo not shown) [Compound 9, N-(2-((4-(3-(2-((2-((2-(2-(2-((2-(2,6-dioxopiperidin-3-yl)-1,3-dioxoisoindolin-4-yl)amino)ethoxy)ethoxy)ethyl)amino)-2-oxoethyl)(methyl)amino)pyridin-4-yl)phenyl)thiazol-2-yl)amino)-2-oxoethyl)-1-(methylsulfonyl)-1H-pyrrole-3-carboxamide]
> 10	C (‘C’ = Maximum degradation <50%)	> 10	< 50	CC(C)(C(=O)N1CCC(C2CCN(C(=O)COc3cccc4c3C(=O)N(C3CCC(=O)NC3=O)C4=O)CC2)CC1)n1ccc(-c2cccc(-c3csc(NC(=O)CNC(=O)c4ccn(S(C)(=O)=O)c4)n3)c2)n1 (stereo not shown) [Compound 10, N-[2-[[4-[3-[1-[2-[4-[1-[2-[2-(2,6-dioxo-3-piperidyl)-1,3-dioxo-isoindolin-4-yl]oxyacetyl]-4-piperidyl]-1-piperidyl]-1,1-dimethyl-2-oxo-ethyl]pyrazol-3-yl]phenyl]thiazol-2-yl]amino]-2-oxo-ethyl]-1-methylsulfonylpyrrole-3-carboxamide]
> 10	C (‘C’ = Maximum degradation <50%)	1 to 10	50 to 75	CS(=O)(=O)n1ccc(C(=O)NCC(=O)Nc2nc(-c3cccc(-c4ccnc(C5(C(=O)NCCOCCOCCNc6cccc7c6C(=O)N(C6CCC(=O)NC6=O)C7=O)CC5)c4)c3)cs2)c1 (stereo not shown) [Compound 11, N-[2-[[4-[3-[2-[1-[2-[2-[2-[[2-(2,6-dioxo-3-piperidyl)-1,3-dioxo-isoindolin-4-yl]amino]ethoxy]ethoxy]ethylcarbamoyl]cyclopropyl]-4-pyridyl]phenyl]thiazol-2-yl]amino]-2-oxo-ethyl]-1-methylsulfonylpyrrole-3-carboxamide]
> 10	C (‘C’ = Maximum degradation <50%)	0.1 to 1	> 75	CS(=O)(=O)n1ccc(C(=O)NCC(=O)Nc2nc(-c3cccc(-c4ccnc(C5(C(=O)NCCCCCNc6cccc7c6C(=O)N(C6CCC(=O)NC6=O)C7=O)CC5)c4)c3)cs2)c1 (stereo not shown) [Compound 12, N-(2-((4-(3-(2-(1-((5-((2-(2,6-dioxopiperidin-3-yl)-1,3-dioxoisoindolin-4-yl)amino)pentyl)carbamoyl)cyclopropyl)-pyridin-4-yl)phenyl)thiazol-2-yl)amino)-2-oxoethyl)-1-(methylsulfonyl)-1H-pyrrole-3-carboxamide]
–	–	–	> 75	Cc1ncsc1-c1ccc(CNC(=O)[C@@H]2C[C@@H](O)CN2C(=O)[C@@H](NC(=O)CCCCCCCCCCCC(=O)NCc2cccc(-c3cccc(-c4csc(NC(=O)CNC(=O)c5ccn(S(C)(=O)=O)c5)n4)c3)c2)C(C)(C)C)cc1 [Compound 114]
